For assay [1], the species on record is Homo sapiens. The assay is described as follows: Selectivity ratio of IC50 for inhibition of biotinylated wild type K-Ras (unknown origin) to IC50 for inhibition of biotinylated K-Ras G12D mutant (unknown origin).
Assay [2] addresses T1, GTPase KRas (Homo sapiens, UniProt P01116, G12D). The assay is described as follows: Inhibition of biotinylated K-Ras G12D mutant (unknown origin) assessed as reduction in SOS1 (564 to 1049 residues)-mediated BODIPY-GDP-GTP exchange after 1 hr in presence of DTT by TR-FRET assay. Background: Time-resolved FRET reads energy transfer from a long-lived donor to a nearby acceptor.

For assay [3], the target named is GTPase KRas (Homo sapiens, UniProt P01116, G12C). The assay is described as follows: Inhibition of biotinylated K-Ras G12C mutant (unknown origin) assessed as reduction in SOS1 (564 to 1049 residues)-mediated BODIPY-GDP-GTP exchange after 1 hr by TR-FRET assay.
Assay [4] deals with GTPase KRas (Homo sapiens, UniProt P01116). The assay is described as follows: Inhibition of biotinylated wild-type K-Ras (unknown origin) assessed as inhibition of human SOS1 (564 to 1049 residues)-mediated BODIPY-GDP-GTP exchange after 1 hr by TR-FRET assay.
For assay [5], the species on record is Homo sapiens. The assay is described as follows: Selectivity ratio of IC50 for inhibition of biotinylated K-Ras G12C mutant (unknown origin) to IC50 for inhibition of biotinylated K-Ras G12D mutant (unknown origin).
The target of assay [6] is T1, GTPase KRas. The assay is described as follows: Inhibition of biotinylated K-Ras G12D mutant (unknown origin) assessed as reduction in SOS1 (564 to 1049 residues)-mediated BODIPY-GDP-GTP exchange after 1 hr by TR-FRET assay.
The subject of the next assay is A549. The assay is described as follows: Antiproliferative activity against human A549 cells harboring K-Ras G12C mutant assessed as cell proliferation at 10 to 30 uM by CellTitre-Glo assay. The assay is classed as functional, cell-based.
Assay [7] relates to A-427. The assay is described as follows: Antiproliferative activity against human A427 cells harboring K-Ras G12D mutant assessed as cell proliferation at 30 uM by CellTitre-Glo assay relative to control. The class given is functional. The settings on record: read-out: Activity.
For assay [8], the system named is A-427. The assay is described as follows: Antiproliferative activity against human A427 cells harboring K-Ras G12D mutant assessed as cell proliferation at 10 uM by CellTitre-Glo assay relative to control. Conditions: read-out: Activity. The assay is classed as functional.

Active and inactive are the calls of the source. The rule behind the calls is not given here. Peptide text beside a SMILES is read from it.

`CC[C@H](C)[C@@H]1NC(=O)[C@H](Cc2ccc(O)cc2)NC(=O)[C@H](CC(C)C)NC(=O)[C@@H]2CCCN2C(=O)[C@@H](NC(=O)[C@H](CCCNC(=N)N)NC(=O)[C@H](CCCNC(=N)N)NC(=O)[C@H](CCCNC(=N)N)NC(=O)[C@H](CCCNC(=N)N)NC(C)=O)CSSC[C@@H](C(=O)N[C@@H](CCCNC(=N)N)C(=O)N[C@@H](CCCNC(=N)N)C(=O)N[C@@H](CCCNC(=N)N)C(=O)N[C@@H](CCCNC(=N)N)C(N)=O)NC(=O)[C@H](C)NC(=O)[C@@H]2CCCN2C(=O)[C@H](CC(=O)O)NC(=O)[C@H](Cc2ccc(O)cc2)NC(=O)[C@H](CO)NC1=O` (HELM PEPTIDE1{[ac].R.R.R.R.C.P.L.Y.I.S.Y.D.P.A.C.R.R.R.R.[am]}$PEPTIDE1,PEPTIDE1,6:R3-16:R3$$$V2.0): the Ratio IC50 came to 14 in the assay listed under Homo sapiens [1] and 6 in the assay listed under Homo sapiens [5]. Besides, the IC50 is 0.0358 µM on GTPase KRas [2], 0.044 µM on GTPase KRas [3], 0.105 µM at GTPase KRas [4] and 0.0075 µM on GTPase KRas [6].
Turning to `CC[C@H](C)[C@@H]1NC(=O)[C@H](Cc2ccc(O)cc2)NC(=O)[C@H](CC(C)C)NC(=O)[C@@H]2CCCN2C(=O)[C@@H](NC(=O)[C@H](CCCNC(=N)N)NC(=O)[C@H](CCCNC(=N)N)NC(=O)[C@H](CCCNC(=N)N)NC(=O)[C@H](CCCNC(=N)N)NC(C)=O)CSCSC[C@@H](C(=O)N[C@@H](CCCNC(=N)N)C(=O)N[C@@H](CCCNC(=N)N)C(=O)N[C@@H](CCCNC(=N)N)C(=O)N[C@@H](CCCNC(=N)N)C(N)=O)NC(=O)[C@H](C(C)C)NC(=O)[C@@H]2CCCN2C(=O)[C@H](CC(=O)O)NC(=O)[C@H](Cc2ccc(O)cc2)NC(=O)[C@H](CO)NC1=O`, in the assay on A549, the result was inactive. Besides, in the assay with A-427 [7], the growth at 30 µM came out at 69.9%. Further, the growth at 10 µM with A-427 [8] was 91%.
With `CC[C@H](C)[C@@H]1NC(=O)[C@H](Cc2ccc(O)cc2)NC(=O)[C@H](CC(C)C)NC(=O)[C@@H]2CCCN2C(=O)[C@@H](NC(=O)[C@H](CCCNC(=N)N)NC(=O)[C@H](CCCNC(=N)N)NC(=O)[C@H](CCCNC(=N)N)NC(=O)[C@H](CCCNC(=N)N)NC(C)=O)CSSC[C@@H](C(=O)N[C@@H](CCCNC(=N)N)C(=O)N[C@@H](CCCNC(=N)N)C(=O)N[C@@H](CCCNC(=N)N)C(=O)N[C@@H](CCCNC(=N)N)C(N)=O)NC(=O)[C@H](C(C)C)NC(=O)[C@@H]2CCCN2C(=O)[C@H](CC(=O)O)NC(=O)[C@H](C)NC(=O)[C@H](CO)NC1=O` (HELM PEPTIDE1{[ac].R.R.R.R.C.P.L.Y.I.S.A.D.P.V.C.R.R.R.R.[am]}$PEPTIDE1,PEPTIDE1,6:R3-16:R3$$$V2.0), the Ratio IC50 in the assay filed under Homo sapiens [1] was 65; in the assay filed under Homo sapiens [5] it was 6. Further, the IC50 at GTPase KRas [2] came out at 0.244 µM; on GTPase KRas [3] it was 0.358 µM; at GTPase KRas [4], 4.19 µM; on GTPase KRas [6] it was 0.064 µM.
As for `CC[C@H](C)[C@@H]1NC(=O)[C@H](Cc2ccc(O)cc2)NC(=O)[C@H](C)NC(=O)[C@@H]2CCCN2C(=O)[C@@H](NC(=O)[C@H](CCCNC(=N)N)NC(=O)[C@H](CCCNC(=N)N)NC(=O)[C@H](CCCNC(=N)N)NC(=O)[C@H](CCCNC(=N)N)NC(C)=O)CSSC[C@@H](C(=O)N[C@@H](CCCNC(=N)N)C(=O)N[C@@H](CCCNC(=N)N)C(=O)N[C@@H](CCCNC(=N)N)C(=O)N[C@@H](CCCNC(=N)N)C(N)=O)NC(=O)[C@H](C(C)C)NC(=O)[C@@H]2CCCN2C(=O)[C@H](CC(=O)O)NC(=O)[C@H](Cc2ccc(O)cc2)NC(=O)[C@H](CO)NC1=O` (HELM PEPTIDE1{[ac].R.R.R.R.C.P.A.Y.I.S.Y.D.P.V.C.R.R.R.R.[am]}$PEPTIDE1,PEPTIDE1,6:R3-16:R3$$$V2.0), the values for the Ratio IC50 in the assay listed under Homo sapiens [1] and in the assay listed under Homo sapiens [5] were above 56 and 1, respectively. The IC50 on GTPase KRas [2] was above 100 µM; on GTPase KRas [3] it was 1.63 µM; at GTPase KRas [4], above 100 µM; at GTPase KRas [6], 1.79 µM.
As for `CC[C@H](C)[C@@H]1NC(=O)[C@H](C)NC(=O)[C@H](CC(C)C)NC(=O)[C@@H]2CCCN2C(=O)[C@@H](NC(=O)[C@H](CCCNC(=N)N)NC(=O)[C@H](CCCNC(=N)N)NC(=O)[C@H](CCCNC(=N)N)NC(=O)[C@H](CCCNC(=N)N)NC(C)=O)CSSC[C@@H](C(=O)N[C@@H](CCCNC(=N)N)C(=O)N[C@@H](CCCNC(=N)N)C(=O)N[C@@H](CCCNC(=N)N)C(=O)N[C@@H](CCCNC(=N)N)C(N)=O)NC(=O)[C@H](C(C)C)NC(=O)[C@@H]2CCCN2C(=O)[C@H](CC(=O)O)NC(=O)[C@H](Cc2ccc(O)cc2)NC(=O)[C@H](CO)NC1=O` (HELM PEPTIDE1{[ac].R.R.R.R.C.P.L.A.I.S.Y.D.P.V.C.R.R.R.R.[am]}$PEPTIDE1,PEPTIDE1,6:R3-16:R3$$$V2.0), the figures for the Ratio IC50 in the assay filed under Homo sapiens [1] and in the assay listed under Homo sapiens [5] were 34 and 1, respectively. Also, the IC50 came out at 0.192 µM on GTPase KRas [2], 0.053 µM on GTPase KRas [3], 1.73 µM at GTPase KRas [4] and 0.05 µM on GTPase KRas [6].
In the case of `CC[C@H](C)[C@@H]1NC(=O)[C@H](Cc2ccc(O)cc2)NC(=O)[C@H](CC(C)C)NC(=O)[C@H](C)NC(=O)[C@@H](NC(=O)[C@H](CCCNC(=N)N)NC(=O)[C@H](CCCNC(=N)N)NC(=O)[C@H](CCCNC(=N)N)NC(=O)[C@H](CCCNC(=N)N)NC(C)=O)CSSC[C@@H](C(=O)N[C@@H](CCCNC(=N)N)C(=O)N[C@@H](CCCNC(=N)N)C(=O)N[C@@H](CCCNC(=N)N)C(=O)N[C@@H](CCCNC(=N)N)C(N)=O)NC(=O)[C@H](C(C)C)NC(=O)[C@@H]2CCCN2C(=O)[C@H](CC(=O)O)NC(=O)[C@H](Cc2ccc(O)cc2)NC(=O)[C@H](CO)NC1=O` (HELM PEPTIDE1{[ac].R.R.R.R.C.A.L.Y.I.S.Y.D.P.V.C.R.R.R.R.[am]}$PEPTIDE1,PEPTIDE1,6:R3-16:R3$$$V2.0), the Ratio IC50 in the assay filed under Homo sapiens [1] stood at 41; in the assay filed under Homo sapiens [5], 6. Further, the IC50 was 0.172 µM on GTPase KRas [2], 0.113 µM at GTPase KRas [3], 0.763 µM at GTPase KRas [4] and 0.019 µM on GTPase KRas [6].
As to `CC[C@H](C)[C@@H]1NC(=O)[C@H](Cc2ccc(O)cc2)NC(=O)[C@H](CC(C)C)NC(=O)[C@@H]2CCCN2C(=O)[C@@H](NC(C)=O)CSSC[C@@H](C(N)=O)NC(=O)[C@H](C(C)C)NC(=O)[C@@H]2CCCN2C(=O)[C@H](CC(=O)O)NC(=O)[C@H](Cc2ccc(O)cc2)NC(=O)[C@H](CO)NC1=O` (HELM PEPTIDE1{[ac].C.P.L.Y.I.S.Y.D.P.V.C.[am]}$PEPTIDE1,PEPTIDE1,2:R3-12:R3$$$V2.0), the Ratio IC50 in the assay filed under Homo sapiens [1] was 13; in the assay listed under Homo sapiens [5], 7. Further, the IC50 at GTPase KRas [2] was 9.77 µM; at GTPase KRas [3] it was 0.082 µM; at GTPase KRas [4], 0.142 µM; at GTPase KRas [6] it was 0.011 µM.

As usually defined, the IC50 is the concentration needed to halve the response being measured.

These data come from ChEMBL document CHEMBL4020739, “Investigation of the structural requirements of K-Ras(G12D) selective inhibitory peptide KRpep-2d using alanine scans and cysteine bridging” (Bioorg Med Chem Lett, 2017).
